# Test results published in patent US12440467B2, “Treatment and prevention of infections using vegetable oil-derived polyols” (priority 2021, dated 2025).
# Target: T1, CD4-gp120 complex (Human immunodeficiency virus type 1 group M subtype B, UniProt P04578)
# T1 construct: recombinant gp120 (5 μg, Sigma-Aldrich); purchased Sigma-Aldrich (gp120); R&D Systems (CD4)
# Test: Immunoprecipitation / Western blot of CD4-gp120 complex formation
# Format: binding, HIV
# Conditions: increasing concentration, Polyol:CD4-gp120 1:1000, 1:100, 1:10; polyol alone
# Method: Immunoprecipitation studies conducted in the presence or absence of the linseed oil-derived polyol were performed to evaluate the impact of the polyol on the formation of the CD4-gp120 complex. A commercially available immunoprecipitation kit consisting of protein G-coated agarose beads (Invitrogen) was used, and immunoprecipitations were conducted according to the manufacturer's protocol. Briefly, the gp120 antibody (5 μg, Sigma-Aldrich) was bound to the protein G-coated agarose beads (50 μl) by placing the antibody and protein G agarose beads in 1.5 ml Eppendorf centrifuge tubes and incubated at room temperature for 10 minutes with rotation. The tubes were placed on the magnet (Life Technologies) and the supernatant was removed. […] The samples were heated for 5 minutes at 95° C., then placed on the magnet, the supernatants were collected and analyzed via western blot. […]
# A standard western blot technique was used to evaluate the impact of the polyol on CD4-gp120 complex formation. […] Protein bands on the membrane were detected by chemiluminescence (Femto, ThermoFisher) and imaged on X-ray film (ThermoFisher). The blotted protein was quantified using the Image J software to measure the density, and the values were normalized to an untreated sample.
# The inhibitory effect of the linseed oil-derived polyol on the formation of CD4 and […] complex was evaluated with immunoprecipitation (IP). […]
smiles,measurement,value
CCC(O)C(O)CC(O)C(O)CC=CCCCCCCCC(=O)OC (stereo not shown) [linseed oil-derived polyol],effect on CD4-gp120 complex formation (gp120 bands),reduced the CD4-gp120 complex formation
